Experiments:
[1] = test system: HCV replicon genotype 1a; experiment: microbe, parasite or virus in culture; format: cell-based; conditions: genotype 1a replicon cells, incubated 96 hours, NS3/4A ELISA readout
[2] = test system: HCV replicon genotype 1b; experiment: microbe, parasite or virus in culture; format: cell-based; conditions: genotype 1b replicon cells, incubated 96 hours, NS3/4A ELISA readout

Question: Which IC50 ([1]; Hepatitis C virus, 96 h) does the source give for `CNC(=O)c1c(-c2ccc(F)cc2)oc2cc(N(C)S(C)(=O)=O)c(-c3ccc4c(n3)-c3[nH]c5cccc(F)c5c3C(c3nccs3)O4)cc12` (stereo not shown) [Compound 67] here?
Answer: 9.2 nM

Question: What about the IC50 ([2]; Hepatitis C virus, 96 h) of the same molecule?
Answer: 10 nM

Question: Which results are given for `CNC(=O)c1c(-c2ccc(F)cc2)oc2cc(N(C)S(C)(=O)=O)c(-c3ccc4c(c3)-c3cc5ccccc5n3CCO4)cc12` [Compound 42, 5-(6,7-dihydrobenzo[6,7][1,4]oxazepino[4,5-a]indol-2-yl)-2-(4-fluorophenyl)-N-methyl-6-(N-methylmethylsulfonamido)benzofuran-3-carboxamide]?
Answer: IC50 ([1]; Hepatitis C virus, 96 h): 3.1 nM; IC50 ([2]; Hepatitis C virus, 96 h): 4.5 nM

Question: Which IC50 [1] does the source give for `CNC(=O)c1c(-c2ccc(F)cc2)oc2cc(N(C)S(C)(=O)=O)c(-c3ccc4c(n3)-c3cc5c(F)cccc5n3C(C(=O)NC)O4)cc12` (stereo not shown) [Compound 110] here?
Answer: 3 nM

Question: And the IC50 [2]?
Answer: 4.8 nM

Question: `CNC(=O)c1c(-c2ccc(F)cc2)oc2cc(N(C)S(C)(=O)=O)c(-c3ccc4c(c3)-c3cc5ccccc5n3CC(O)(C(F)(F)F)CO4)cc12` (stereo not shown) [Compound 79, 2-(4-fluorophenyl)-5-(7-hydroxy-7-(trifluoromethyl)-7,8-dihydro-6H-benzo[2,3][1,5]oxazocino[5,4-a]indol-2-yl)-N-methyl-6-(N-methylmethylsulfonamido)benzofuran-3-carboxamide] was tested. Which IC50 ([1]; Hepatitis C virus, 96 h) did it give?
Answer: 10 nM

Question: And the IC50 ([2]; Hepatitis C virus, 96 h)?
Answer: 11 nM

Question: `CNC(=O)c1c(-c2ccc(F)cc2)oc2cc(N(C)S(C)(=O)=O)c(-c3ccc4c(n3)-c3cc5c(F)cccc5n3C(CO)(CO)O4)cc12` [Compound 94] was tested. Which IC50 ([1]; Hepatitis C virus, 96 h) did it give?
Answer: 2.3 nM

Question: And the IC50 ([2]; Hepatitis C virus, 96 h)?
Answer: 5.6 nM

Question: Which IC50 ([1]; Hepatitis C virus, 96 h) does the source give for `CNC(=O)c1c(-c2ccc(F)cc2)oc2cc(N(C)S(C)(=O)=O)c(-c3cc4c(cn3)OCn3c-4cc4ccccc43)cc12` [Compound 11] here?
Answer: 2.1 nM

Question: What about the IC50 ([2]; Hepatitis C virus, 96 h) of the same molecule?
Answer: 1.8 nM

Question: `CNC(=O)c1c(-c2ccc(F)cc2)oc2cc(N(C)S(C)(=O)=O)c(-c3ccc4c(n3)-c3cc5c(F)cccc5n3C(C(N)=O)O4)cc12` (stereo not shown) [Compound 106, 11-fluoro-2-(2-(4-fluorophenyl)-3-(methylcarbamoyl)-6-(N-methylmethylsulfonamido)benzofuran-5-yl)-6H-pyrido[2′,3′:5,6][1,3]oxazino[3,4-a]indole-6-carboxamide] was tested. Which IC50 [1] did it give?
Answer: 5.5 nM

Question: What about the IC50 [2] of the same molecule?
Answer: 2.4 nM

Question: Which results are given for `CNC(=O)c1c(-c2ccc(F)cc2)oc2cc(N(C)S(C)(=O)=O)c(-c3ccc4c(n3)-c3cc5cccc(CN)c5n3CO4)cc12` [Compound 69]?
Answer: IC50 ([1]; Hepatitis C virus, 96 h): 57 nM; IC50 ([2]; Hepatitis C virus, 96 h): 45 nM

Question: `CNC(=O)c1c(-c2ccc(F)cc2)oc2cc(N(C)S(C)(=O)=O)c(-c3ccc4c(n3)-c3cc5cc(F)cc(F)c5n3CO4)cc12` [Compound 19] was tested. Which IC50 ([1]; Hepatitis C virus, 96 h) did it give?
Answer: 19 nM

Question: What about the IC50 ([2]; Hepatitis C virus, 96 h) of the same molecule?
Answer: 21 nM

Question: Which IC50 ([1]; Hepatitis C virus, 96 h) does the source give for `CNC(=O)c1c(-c2ccc(F)cc2)oc2cc(N(CCF)S(C)(=O)=O)c(-c3ncc4c(n3)-c3cc5ccccc5n3CO4)cc12` [Compound 196] here?
Answer: 1.8 nM

Question: What about the IC50 ([2]; Hepatitis C virus, 96 h) of the same molecule?
Answer: 3.6 nM

Question: For `CNC(=O)c1c(-c2ccc(F)cc2)oc2cc(N3CCOC3=O)c(-c3ncc4c(n3)-c3cc5c(F)cccc5n3CO4)cc12` [Compound 173, 5-(11-fluoro-6H-pyrimido[4′,3′:5,6][1,3]oxazino[3,4-a]indol-2-yl)-2-(4-fluorophenyl)-N-methyl-6-(2-oxooxazolidin-3-yl)benzofuran-3-carboxamide], which IC50 ([1]; Hepatitis C virus, 96 h) is on record?
Answer: 8.4 nM

Question: And the IC50 ([2]; Hepatitis C virus, 96 h)?
Answer: 2.1 nM

Question: For `CNC(=O)c1c(-c2ccc(F)cc2)oc2cc(N(C)S(C)(=O)=O)c(-c3ncc4c(n3)-c3cc5c(F)c(F)ccc5n3CO4)cc12` [Compound 30], which IC50 ([1]; Hepatitis C virus, 96 h) is on record?
Answer: 1 nM

Question: And the IC50 ([2]; Hepatitis C virus, 96 h)?
Answer: 2.1 nM

Question: Which results are given for `CC(=O)N(C)C(=O)c1c(-c2ccc(F)cc2)oc2cc(N(C)S(C)(=O)=O)c(-c3ccc4c(n3)-c3cc5c(F)cccc5n3CO4)cc12` [Compound 210, N-acetyl-5-(11-fluoro-6H-pyrido[2′,3′:5,6][1,3]oxazino[3,4-a]indol-2-yl)-2-(4-fluorophenyl)-N-methyl-6-(N-methylmethylsulfonamido)benzofuran-3-carboxamide]?
Answer: IC50 ([1]; Hepatitis C virus, 96 h): 2.1 nM; IC50 ([2]; Hepatitis C virus, 96 h): 4.2 nM

Question: What does the source list for `CNC(=O)c1c(-c2ccc(F)cc2F)oc2cc(N(C)S(C)(=O)=O)c(-c3ncc4c(n3)-c3cc5c(F)cccc5n3CO4)cc12` [Compound 149]?
Answer: IC50 ([1]; Hepatitis C virus, 96 h): 1.2 nM; IC50 ([2]; Hepatitis C virus, 96 h): 2.2 nM

Question: How did the IC50 ([1]; Hepatitis C virus, 96 h) turn out when `CNC(=O)c1c(-c2ccc(F)cc2)oc2cc(N(C)S(C)(=O)=O)c(-c3ncc4c(n3)-c3cc5ccccc5n3CCCO4)cc12` [Compound 39] was run?
Answer: 2.4 nM

Question: What about the IC50 ([2]; Hepatitis C virus, 96 h) of the same molecule?
Answer: 1.8 nM

Question: What does the source list for `CNC(=O)c1c(-c2ccc(F)cc2)oc2cc(N(C)S(C)(=O)=O)c(-c3ccc4c(n3)-c3cc5c(F)cccc5n3C(CNC(C)=O)O4)cc12` (stereo not shown) [Compound 130]?
Answer: IC50 [1]: 3 nM; IC50 [2]: 3 nM

Question: How did the IC50 ([1]; Hepatitis C virus, 96 h) turn out when `CNC(=O)c1c(-c2ccc(F)cc2)oc2cc(N(C)S(C)(=O)=O)c(-c3ccc4c(c3)-c3cc5cccnc5n3CO4)cc12` [Compound 49] was run?
Answer: 0.6 nM

Question: What about the IC50 ([2]; Hepatitis C virus, 96 h) of the same molecule?
Answer: 1.7 nM

Question: What does the source list for `CNC(=O)c1c(-c2ccc(F)cc2)oc2cc(N(C)S(C)(=O)=O)c(-c3cc4c(cn3)OCn3c-4cc4c(F)cccc43)cc12` [Compound 16]?
Answer: IC50 ([1]; Hepatitis C virus, 96 h): 2.1 nM; IC50 ([2]; Hepatitis C virus, 96 h): 2.3 nM

Question: Which IC50 ([1]; Hepatitis C virus, 96 h) does the source give for `CNC(=O)c1c(-c2ccc(F)cc2)oc2cc(N(C)S(C)(=O)=O)c(-c3ccc4c(c3)-c3cc5c(F)cccc5n3CO4)cc12` [Compound 43, 5-(11-fluoro-6H-benzo[5,6][1,3]oxazino[3,4-a]indol-2-yl)-2-(4-fluorophenyl)-N-methyl-6-(N-methylmethylsulfonamido)benzofuran-3-carboxamide] here?
Answer: 2.4 nM

Question: And the IC50 ([2]; Hepatitis C virus, 96 h)?
Answer: 3.9 nM

Question: Which results are given for `CNC(=O)c1c(-c2ccc(F)cc2)oc2cc(-c3ccsc3)c(-c3ccc4c(n3)-c3cc5c(F)cccc5n3CO4)cc12` [Compound 166]?
Answer: IC50 ([1]; Hepatitis C virus, 96 h): 69 nM; IC50 ([2]; Hepatitis C virus, 96 h): 27 nM

Question: Which results are given for `CONC(=O)c1c(-c2ccc(F)cc2)oc2cc(N(C)S(C)(=O)=O)c(-c3ccc4c(n3)-c3cc5c(F)cccc5n3CO4)cc12` [Compound 153]?
Answer: IC50 ([1]; Hepatitis C virus, 96 h): 2.5 nM; IC50 ([2]; Hepatitis C virus, 96 h): 4.9 nM

Question: How did the IC50 ([1]; Hepatitis C virus, 96 h) turn out when `CNC(=O)c1c(-c2ccc(F)cc2)oc2cc(N(C)S(C)(=O)=O)c(-c3ccc4c(n3)-c3cc5c(F)cccc5n3C(CF)O4)cc12` (stereo not shown) [Compound 98, 5-(11-fluoro-6-(fluoromethyl)-6H-pyrido[2′,3′:5,6][1,3]oxazino[3,4-a]indol-2-yl)-2-(4-fluorophenyl)-N-methyl-6-(N-methylmethylsulfonamido)benzofuran-3-carboxamide] was run?
Answer: 3.9 nM

Question: What about the IC50 ([2]; Hepatitis C virus, 96 h) of the same molecule?
Answer: 6.3 nM

Question: What does the source list for `CNC(=O)c1c(-c2ccc(F)cc2)oc2cc(N(C)S(C)(=O)=O)c(-c3ccc4c(c3)-c3cc5ccccc5n3CC(NCCN(C)C)CO4)cc12` (stereo not shown) [Compound 80, 5-(7-((2-(dimethylamino)ethyl)amino)-7,8-dihydro-6H-benzo[2,3][1,5]oxazocino[5,4-a]indol-2-yl)-2-(4-fluorophenyl)-N-methyl-6-(N-methylmethylsulfonamido)benzofuran-3-carboxamide]?
Answer: IC50 ([1]; Hepatitis C virus, 96 h): 18 nM; IC50 ([2]; Hepatitis C virus, 96 h): 15 nM

Question: How did the IC50 ([1]; Hepatitis C virus, 96 h) turn out when `CNC(=O)c1c(-c2ccc(F)cc2)oc2cc(N(C)S(C)(=O)=O)c(-c3ccc4c(n3)-c3cc5c(F)cccc5n3C(COC)O4)cc12` (stereo not shown) [Compound 95] was run?
Answer: 3.2 nM

Question: What about the IC50 ([2]; Hepatitis C virus, 96 h) of the same molecule?
Answer: 5.3 nM

Question: Which results are given for `CNC(=O)c1c(-c2ccc(F)cc2)oc2cc(N(C)S(C)(=O)=O)c(-c3ccc4c(n3)-c3cc5c(C(N)=O)cccc5n3CO4)cc12` [Compound 73, 2-(2-(4-fluorophenyl)-3-(methylcarbamoyl)-6-(N-methylmethylsulfonamido)benzofuran-5-yl)-6H-pyrido[2′,3′:5,6][1,3]oxazino[3,4-a]indole-11-carboxamide]?
Answer: IC50 ([1]; Hepatitis C virus, 96 h): 625 nM; IC50 ([2]; Hepatitis C virus, 96 h): 36 nM

Question: `CNC(=O)c1c(-c2ccc(F)cc2)oc2cc(N(C)S(C)(=O)=O)c(-c3ccc4c(n3)-c3cc5c(F)cccc5n3C(CNC(C)=O)O4)cc12` (stereo not shown) [Compound 129] was tested. Which IC50 [1] did it give?
Answer: 1.7 nM

Question: What about the IC50 [2] of the same molecule?
Answer: 2.1 nM
